According to PubChem BioAssay AID1963825 (Molecular Pharmacology Branch, DTP, NCI, 2024):

Experiment: Anticancer human tumor 997537-175-T-J1-PDC patient-derived colon adenocarcinoma cell line growth inhibition [POLQ]
Conditions: 997537-175-T-J1-PDC complex spheroid viability, combination with POLQ inhibitors; for IC50: curve of first compound; for viability, T/C: stronger effect = lower value
Procedure, shortened: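 Complex spheroid viability model combining PDC tumour cells with endothelial (HUVEC) and MSC stromal cells. Novobiocin, ART-558 or RP6685 were tested singly and in combination with standard and investigational anticancer drugs. Each was titrated in half-log steps from near clinical Cmax, or from 10 microM where Cmax was unknown.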

[1] = second compound 0.0316 µM, first compound 0.0316 µM
[2] = second compound 0.0316 µM, first compound 0.1 µM
[3] = second compound 0.0316 µM, first compound 0.316 µM
[4] = second compound 0.0316 µM, first compound 1 µM
[5] = second compound 0.0316 µM, first compound 3.16 µM
[6] = second compound 0.0316 µM, first compound 10 µM
[7] = second compound 0.1 µM, first compound 0.0316 µM
[8] = second compound 0.1 µM, first compound 0.1 µM
[9] = second compound 0.1 µM, first compound 0.316 µM
[10] = second compound 0.1 µM, first compound 1 µM
[11] = second compound 0.1 µM, first compound 3.16 µM
[12] = second compound 0.1 µM, first compound 10 µM
[13] = second compound 0.316 µM, first compound 0.0316 µM
[14] = second compound 0.316 µM, first compound 0.1 µM
[15] = second compound 0.316 µM, first compound 0.316 µM
[16] = second compound 0.316 µM, first compound 1 µM
[17] = second compound 0.316 µM, first compound 3.16 µM
[18] = second compound 0.316 µM, first compound 10 µM
[19] = second compound 1 µM, first compound 0.0316 µM
[20] = second compound 1 µM, first compound 0.1 µM
[21] = second compound 1 µM, first compound 0.316 µM
[22] = second compound 1 µM, first compound 1 µM
[23] = second compound 1 µM, first compound 3.16 µM
[24] = second compound 1 µM, first compound 10 µM
[25] = second compound 3.16 µM, first compound 0.0316 µM
[26] = second compound 3.16 µM, first compound 0.1 µM
[27] = second compound 3.16 µM, first compound 0.316 µM
[28] = second compound 3.16 µM, first compound 1 µM
[29] = second compound 3.16 µM, first compound 3.16 µM
[30] = second compound 3.16 µM, first compound 10 µM
[31] = second compound 10 µM, first compound 0.0316 µM
[32] = second compound 10 µM, first compound 0.1 µM
[33] = second compound 10 µM, first compound 0.316 µM
[34] = second compound 10 µM, first compound 1 µM
[35] = second compound 10 µM, first compound 3.16 µM
[36] = second compound 10 µM, first compound 10 µM
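Also: luminescence signal used as a surrogate for viable cells; spheroids exposed to drugs for seven days before readout.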

With `COc1cc(C2c3cc4c(cc3C(OC3OC5COC(C)OC5C(O)C3O)C3COC(=O)C23)OCO4)cc(OC)c1O` (centres undefined) + COC1C(OC(N)=O)C(O)C(Oc2ccc3c(O)c(NC(=O)c4ccc(O)c(CC=C(C)C)c4)c(=O)oc3c2C)OC1(C)C the IC50 (second compound 0.0316 µM) was greater than 10 µM, the IC50 (second compound 0.1 µM) was greater than 10 µM and the IC50 (second compound 0.316 µM) was greater than 10 µM. For the same compound, the IC50 (second compound 1 µM) was greater than 10 µM, the IC50 (second compound 3.16 µM) was greater than 10 µM and the IC50 (second compound 10 µM) was greater than 10 µM. For the same compound, the viability, T/C [1] was 99.8%, the viability, T/C [2] was 95% and the viability, T/C [3] was 93.1%. For the same compound, the viability, T/C [4] was 89.9%, the viability, T/C [5] was 74.7% and the viability, T/C [6] was 67.3%. The viability, T/C [7] was 103%, the viability, T/C [8] was 114% and the viability, T/C [9] was 99.3%. The viability, T/C [10] was 93.7%, the viability, T/C [11] was 60.2% and the viability, T/C [12] was 88.5%. It also gave a viability, T/C [13] of 97.3%, a viability, T/C [14] of 107% and a viability, T/C [15] of 99.2%. For the same compound, the viability, T/C [16] was 108%, the viability, T/C [17] was 92.3% and the viability, T/C [18] was 53.3%. It also gave a viability, T/C [19] of 93.5%, a viability, T/C [20] of 105% and a viability, T/C [21] of 110%. It also gave a viability, T/C [22] of 83.9%, a viability, T/C [23] of 88.8% and a viability, T/C [24] of 55.5%. For the same compound, the viability, T/C [25] was 109%, the viability, T/C [26] was 107% and the viability, T/C [27] was 87.7%. The viability, T/C [28] was 104%, the viability, T/C [29] was 63.5% and the viability, T/C [30] was 67.8%. For the same compound, the viability, T/C [31] was 106%, the viability, T/C [32] was 107% and the viability, T/C [33] was 108%. It also gave a viability, T/C [34] of 100%, a viability, T/C [35] of 84.9% and a viability, T/C [36] of 66.1%.
Work on `O=c1[nH]cc(F)c(=O)[nH]1` + COC1C(OC(N)=O)C(O)C(Oc2ccc3c(O)c(NC(=O)c4ccc(O)c(CC=C(C)C)c4)c(=O)oc3c2C)OC1(C)C yielded an IC50 (second compound 0.0316 µM) greater than 10 µM, an IC50 (second compound 0.1 µM) greater than 10 µM and an IC50 (second compound 0.316 µM) greater than 10 µM. It also gave an IC50 (second compound 1 µM) greater than 10 µM, an IC50 (second compound 3.16 µM) greater than 10 µM and an IC50 (second compound 10 µM) greater than 10 µM. For the same compound, the viability, T/C [1] was 102%, the viability, T/C [2] was 102% and the viability, T/C [3] was 112%. For the same compound, the viability, T/C [4] was 87.8%, the viability, T/C [5] was 78.7% and the viability, T/C [6] was 76.2%. The viability, T/C [7] was 86.3%, the viability, T/C [8] was 104% and the viability, T/C [9] was 104%. For the same compound, the viability, T/C [10] was 114%, the viability, T/C [11] was 102% and the viability, T/C [12] was 90.3%. The viability, T/C [13] was 95.3%, the viability, T/C [14] was 103% and the viability, T/C [15] was 105%. It also gave a viability, T/C [16] of 87.7%, a viability, T/C [17] of 85.2% and a viability, T/C [18] of 97.2%. It also gave a viability, T/C [19] of 96.7%, a viability, T/C [20] of 108% and a viability, T/C [21] of 110%. The viability, T/C [22] was 89.9%, the viability, T/C [23] was 92.2% and the viability, T/C [24] was 87.5%. It also gave a viability, T/C [25] of 108%, a viability, T/C [26] of 104% and a viability, T/C [27] of 101%. It also gave a viability, T/C [28] of 101%, a viability, T/C [29] of 103% and a viability, T/C [30] of 92.6%. It also gave a viability, T/C [31] of 95.8%, a viability, T/C [32] of 98.2% and a viability, T/C [33] of 95.3%. For the same compound, the viability, T/C [34] was 84.2%, the viability, T/C [35] was 96.9% and the viability, T/C [36] was 85.3%.
